Experimental data from ChEMBL document CHEMBL1201862, “PubChem BioAssay data set” (2004).
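Protocol summary: plate cells (96-well), add compound at 5 concentrations, incubate 48 h, interpolate endpoints linearly. Here, GI50 denotes the concentration required for 50% inhibition of growth.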 The source made the active and inactive calls. No stated cut-off is given here; in the data, active = GI50 up to about 1.1 µM and inactive = higher.

Experiments:
Test in all cases: NCI anticancer screen, dose series, 48 h
SF-295 = test system: SF-295
RXF 393 = test system: RXF 393
MDA-MB-435 = test system: MDA-MB-435
SNB-19 = test system: SNB-19
NCI-H226 = test system: NCI-H226
HCT-116 = test system: HCT-116
OVCAR-5 = test system: OVCAR-5
SNB-75 = test system: SNB-75
SK-MEL-28 = test system: SK-MEL-28
M14 = test system: M14
T47D = test system: T47D
BT-549 = test system: BT-549
UO-31 = test system: UO-31
SW-620 = test system: SW-620
MCF7 = test system: MCF7
MOLT-4 = test system: MOLT-4
U-251 = test system: U-251
Hs-578T = test system: Hs-578T
NCI-H23 = test system: NCI-H23

| Structure (SMILES) | GI50 (SF-295) | GI50 (RXF 393) | GI50 (MDA-MB-435) | GI50 (SNB-19) | GI50 (NCI-H226) | GI50 (HCT-116) | GI50 (OVCAR-5) | GI50 (SNB-75) | GI50 (SK-MEL-28) | GI50 (M14) | GI50 (T47D) | GI50 (BT-549) | GI50 (UO-31) | GI50 (SW-620) | GI50 (MCF7) | GI50 (MOLT-4) | GI50 (U-251) | GI50 (Hs-578T) | GI50 (NCI-H23) |
| --- | --- | --- | --- | --- | --- | --- | --- | --- | --- | --- | --- | --- | --- | --- | --- | --- | --- | --- | --- |
| OC(O)(C(F)(F)F)C(F)(F)F | > 100 µM (inactive) | > 100 µM (inactive) | > 100 µM (inactive) | > 100 µM (inactive) | > 100 µM (inactive) | > 100 µM (inactive) | > 100 µM (inactive) | > 100 µM (inactive) | > 100 µM (inactive) | > 100 µM (inactive) | > 100 µM (inactive) | > 100 µM (inactive) | > 100 µM (inactive) | > 100 µM (inactive) | > 100 µM (inactive) | > 100 µM (inactive) | > 100 µM (inactive) | > 100 µM (inactive) | > 100 µM (inactive) |
| Nc1ncnc2nc(N3CCN(CCO)CC3)[nH]c12 | > 100 µM (inactive) | > 100 µM (inactive) | > 100 µM (inactive) | > 100 µM (inactive) | > 100 µM (inactive) | > 100 µM (inactive) | > 100 µM (inactive) | – | > 100 µM (inactive) | > 100 µM (inactive) | > 100 µM (inactive) | > 100 µM (inactive) | > 100 µM (inactive) | > 100 µM (inactive) | > 100 µM (inactive) | 50.6 µM (inactive) | > 100 µM (inactive) | > 100 µM (inactive) | > 100 µM (inactive) |
| CCN(CC(COc1ccc2c(c1)[n+]([O-])nc(N)[n+]2[O-])OC(C)=O)C(C)=O (stereo not drawn) | > 100 µM (inactive) | – | 90.4 µM (inactive) | > 100 µM (inactive) | > 100 µM (inactive) | 78.7 µM (inactive) | > 100 µM (inactive) | 35.8 µM (inactive) | > 100 µM (inactive) | 89.3 µM (inactive) | 33.9 µM (inactive) | > 100 µM (inactive) | 72.3 µM (inactive) | > 100 µM (inactive) | > 100 µM (inactive) | 20.8 µM (inactive) | > 100 µM (inactive) | 51.3 µM (inactive) | 49.5 µM (inactive) |
| O=c1c2cccnc2[nH]c2ccc3scnc3c12 | > 10 µM (inactive) | 3.11 µM (inactive) | 9.82 µM (inactive) | > 10 µM (inactive) | 5.97 µM (inactive) | 3.3 µM (inactive) | > 10 µM (inactive) | 6.31 µM (inactive) | > 10 µM (inactive) | 8.07 µM (inactive) | > 10 µM (inactive) | > 10 µM (inactive) | – | > 10 µM (inactive) | > 10 µM (inactive) | 4.34 µM (inactive) | > 10 µM (inactive) | > 10 µM (inactive) | > 10 µM (inactive) |
| Cc1c(C(=O)OCc2ccccc2)[n+]([O-])c2cc(Cl)c(Cl)cc2[n+]1[O-] | 16.8 µM (inactive) | 19.1 µM (inactive) | 19.8 µM (inactive) | 27 µM (inactive) | 5.77 µM (inactive) | 14.2 µM (inactive) | 21.3 µM (inactive) | – | 25.1 µM (inactive) | 15 µM (inactive) | 5.48 µM (inactive) | 20.4 µM (inactive) | 16.4 µM (inactive) | – | 19.5 µM (inactive) | 3.28 µM (inactive) | 24.6 µM (inactive) | 19.2 µM (inactive) | 18.5 µM (inactive) |
| Clc1ccc2nc3c(c(-c4ccccc4)nn3-c3ccccc3)c(-c3ccccc3)c2c1 | > 100 µM (inactive) | – | > 100 µM (inactive) | > 100 µM (inactive) | > 100 µM (inactive) | > 100 µM (inactive) | > 100 µM (inactive) | > 100 µM (inactive) | > 100 µM (inactive) | > 100 µM (inactive) | > 100 µM (inactive) | > 100 µM (inactive) | > 100 µM (inactive) | > 100 µM (inactive) | > 100 µM (inactive) | > 100 µM (inactive) | > 100 µM (inactive) | > 100 µM (inactive) | > 100 µM (inactive) |
| O=C(N/N=C/c1ccc(Br)cc1)N/N=C/c1ccc(Br)cc1 | 6.19 µM (inactive) | 13.3 µM (inactive) | 12.3 µM (inactive) | 4.42 µM (inactive) | 7.43 µM (inactive) | 3.53 µM (inactive) | 35.3 µM (inactive) | – | 12 µM (inactive) | 11.1 µM (inactive) | 4.38 µM (inactive) | 20.9 µM (inactive) | 10.9 µM (inactive) | 7.13 µM (inactive) | 11.3 µM (inactive) | 4.42 µM (inactive) | 6.24 µM (inactive) | 3.78 µM (inactive) | 22.9 µM (inactive) |
| COC(=O)C(/C(=N/N)C(=O)Nc1cc(Cl)c(Cl)cc1Cl)c1nc2ccc(Cl)cc2nc1O (stereo not drawn) | > 100 µM (inactive) | > 100 µM (inactive) | > 100 µM (inactive) | – | > 100 µM (inactive) | > 100 µM (inactive) | > 100 µM (inactive) | > 100 µM (inactive) | > 100 µM (inactive) | > 100 µM (inactive) | > 100 µM (inactive) | > 100 µM (inactive) | 42.5 µM (inactive) | > 100 µM (inactive) | > 100 µM (inactive) | 0.0515 µM (active) | > 100 µM (inactive) | > 100 µM (inactive) | > 100 µM (inactive) |
| CCC(C)c1cnc(CC(C)C)c(=O)[nH]1 (stereo not drawn) | > 100 µM (inactive) | > 100 µM (inactive) | > 100 µM (inactive) | > 100 µM (inactive) | – | > 100 µM (inactive) | > 100 µM (inactive) | > 100 µM (inactive) | > 100 µM (inactive) | > 100 µM (inactive) | > 100 µM (inactive) | > 100 µM (inactive) | > 100 µM (inactive) | > 100 µM (inactive) | > 100 µM (inactive) | > 100 µM (inactive) | > 100 µM (inactive) | > 100 µM (inactive) | > 100 µM (inactive) |
| COC(=O)C1=C(OC(=O)/C(=C/c2ccccc2)c2ccccc2)C(C(=O)OC)[C@@]2(O)[C@@H](C(=O)OC)[C@H](C)C[C@@H]1[C@@H]2C(=O)OC (stereo partly drawn) | 69.7 µM (inactive) | 66.2 µM (inactive) | > 100 µM (inactive) | > 100 µM (inactive) | > 100 µM (inactive) | > 100 µM (inactive) | > 100 µM (inactive) | > 100 µM (inactive) | > 100 µM (inactive) | > 100 µM (inactive) | > 100 µM (inactive) | > 100 µM (inactive) | > 100 µM (inactive) | > 100 µM (inactive) | > 100 µM (inactive) | – | > 100 µM (inactive) | > 100 µM (inactive) | > 100 µM (inactive) |
| O=C1c2cc(Cl)ccc2N=C(NCCCl)C2CSCN12 (stereo not drawn) | > 100 µM (inactive) | > 100 µM (inactive) | > 100 µM (inactive) | > 100 µM (inactive) | > 100 µM (inactive) | > 100 µM (inactive) | > 100 µM (inactive) | – | > 100 µM (inactive) | > 100 µM (inactive) | > 100 µM (inactive) | > 100 µM (inactive) | > 100 µM (inactive) | > 100 µM (inactive) | > 100 µM (inactive) | > 100 µM (inactive) | > 100 µM (inactive) | 86.5 µM (inactive) | – |
| Cc1ccc(C(=O)Nc2ccc(CP(=O)(O)O)cc2CP(=O)(O)O)cc1NC(=O)c1cccc(N)c1 | > 100 µM (inactive) | > 100 µM (inactive) | > 100 µM (inactive) | – | > 100 µM (inactive) | > 100 µM (inactive) | > 100 µM (inactive) | > 100 µM (inactive) | > 100 µM (inactive) | > 100 µM (inactive) | > 100 µM (inactive) | > 100 µM (inactive) | > 100 µM (inactive) | > 100 µM (inactive) | > 100 µM (inactive) | > 100 µM (inactive) | > 100 µM (inactive) | > 100 µM (inactive) | > 100 µM (inactive) |
| CN(C)CC1CCC/C(=C\c2ccc(Cl)c(Cl)c2)C1=O (stereo not drawn) | 12.4 µM (inactive) | – | 6.38 µM (inactive) | 7.23 µM (inactive) | 11.4 µM (inactive) | 1.97 µM (inactive) | 21 µM (inactive) | 7.41 µM (inactive) | 5.14 µM (inactive) | 3.83 µM (inactive) | 2.31 µM (inactive) | 2.33 µM (inactive) | 2.74 µM (inactive) | – | 1.64 µM (inactive) | 1.44 µM (inactive) | 2.65 µM (inactive) | 2.99 µM (inactive) | 8.45 µM (inactive) |
| Cc1nc2cccc([N+](=O)[O-])c2n1CCCN(C)C | > 100 µM (inactive) | > 100 µM (inactive) | > 100 µM (inactive) | > 100 µM (inactive) | > 100 µM (inactive) | > 100 µM (inactive) | > 100 µM (inactive) | > 100 µM (inactive) | > 100 µM (inactive) | 22.6 µM (inactive) | > 100 µM (inactive) | > 100 µM (inactive) | 16.8 µM (inactive) | > 100 µM (inactive) | > 100 µM (inactive) | – | > 100 µM (inactive) | > 100 µM (inactive) | > 100 µM (inactive) |
| O=C1C2CCCCC2C(=O)N1n1c(Cc2ccccc2)n[nH]c1=O (stereo not drawn) | > 100 µM (inactive) | > 100 µM (inactive) | > 100 µM (inactive) | > 100 µM (inactive) | > 100 µM (inactive) | > 100 µM (inactive) | > 100 µM (inactive) | > 100 µM (inactive) | – | > 100 µM (inactive) | > 100 µM (inactive) | > 100 µM (inactive) | > 100 µM (inactive) | > 100 µM (inactive) | > 100 µM (inactive) | > 100 µM (inactive) | > 100 µM (inactive) | > 100 µM (inactive) | > 100 µM (inactive) |
